Experimental data taken from patent US11320438B2, “Isotopic methods for measurement of tryptophan and metabolites thereof” (ELECTROPHORETICS LIMITED, priority 2015, dated 2022).

What was measured:
TDO = molecular target: T1, TDO (Homo sapiens, UniProt P48775); assay: Degradation in supernatants of HEK cells expressing TDO; assay type: in vitro ADME; conditions: day 0 vs day 6
T1 construct: expressed in transfected cells; host or cells: HEK293 cells, neomycin-selected
Protocol: SKOV-3 ovarian carcinoma cells were cultured in McCoy's 5A Medium (BioConcept, Allschwil, Switzerland) supplemented with L-Tryptophan as indicated (Sigma-Aldrich, Taufkirchen, Germany), 300 mg/l Glutamine (Carl Roth, Karlsruhe, Germany), 10% FBS (Thermo Fisher Scientific Inc., Waltham, Mass., USA) and 100 U/mL penicillin and 100 μg/mL streptomycin (PAA Laboratories, Pasching, Austria). Human embryonic kidney (HEK) cells were cultured in DMEM (PAA Laboratories), 10% FBS (Thermo Scientific) and 100 U/mL penicillin and 100 μg/mL streptomycin (PAA Laboratories). […] All cells were routinely tested for contamination by the Multiplex cell Contamination Test (44). Cultures were incubated at 37° C. in a 5% CO2 atmosphere.
The full length cDNA sequence of IDO1 and TDO was cloned via Gateway® cloning into pDEST-Flag-C, a Gateway® compatible overexpression vector containing a single C-terminal FLAG-tag, resulting in pDEST-TDO-FLAG-C and pDEST-IDO1-FLAG-C.
Basis for the pDEST-FLAG-C was the pDEST26 vector (Invitrogen). The 6×His-tag of pDEST26 was removed with site-directed mutagenesis PCR, resulting in pDEST. The single C-terminal Flag-tag was introduced into pDEST, by site-directed mutagenesis PCR, resulting in Flag-C. […] Cells were selected using 1.5 mg/ml neomycin (Sigma-Aldrich).
(§1) 50 μL of each single cell culture supernatant was labelled with TMT® sixplex reagents (Thermo Fisher Scientific).
(§2) Samples were either measured on a QTof II (Waters) mass spectrometer coupled to an UPLC nanoLC (Waters) on an LTQ Orbitrap Velos Pro (Thermo Scientific) coupled to a Proxeon nanoLC-II (Thermo Scientific) or a triple quadrupole system coupled to nanoLC-II (EASY-nLC II TSQ Vantage system). The samples were resolved in 150 μl 2% ACN, 0.1% formic acid (1 μL sample=1 μL mixed supernatant equivalent).

SKOV-3 cells = assay: Degradation of tryptophan and 1-MT in SKOV-3 cell culture supernatants (TMT sixplex LC-MS/MS); assay type: in vitro ADME, human; conditions: for degradation to methyl-kynurenine: days 0-6, 1000 μM 1-MT with 70 μM tryptophan, or 200 μM 1-MT with no added tryptophan; for depletion of the substance from the media: after 6 days of incubation
Protocol: (§3) SKOV-3 ovarian carcinoma cells were cultured in McCoy's 5A Medium (BioConcept, Allschwil, Switzerland) supplemented with L-Tryptophan as indicated (Sigma-Aldrich, Taufkirchen, Germany), 300 mg/l Glutamine (Carl Roth, Karlsruhe, Germany), 10% FBS (Thermo Fisher Scientific Inc., Waltham, Mass., USA) and 100 U/mL penicillin and 100 μg/mL streptomycin (PAA Laboratories, Pasching, Austria). Human embryonic kidney (HEK) cells were cultured in DMEM (PAA Laboratories), 10% FBS (Thermo Scientific) and 100 U/mL penicillin and 100 μg/mL streptomycin (PAA Laboratories). Peripheral blood mononuclear cells (PBMC) were isolated from healthy, non-related blood-donors by density-gradient centrifugation using lymphocyte separation medium LSA 1077 (PAA Laboratories) and cultured in RPMI 1640 (PAA Laboratories) containing 10% FBS (Thermo Fisher Scientific Inc) and 100 U/mL penicillin and 100 μg/mL streptomycin (PAA Laboratories). For the generation of dendritic cells (DC), CD14+ cells were separated using the magnetic activated cell sorting (MACS) technology (Miltenyi Biotec, Bergisch Gladbach, Germany) and plated in RPMI 1640 (Cambrex, Verviers, Belgium) containing 10% FBS, 200 IU/mL interleukin-4 and 1000 IU/mL GM-CSF (Immunotools, Friesoythe, Germany) for 7 days. All cells were routinely tested for contamination by the Multiplex cell Contamination Test (44). Cultures were incubated at 37° C. in a 5% CO2 atmosphere. 20 mM stock solutions (of 1-methyl-D-tryptophan (1-D-MT, lot numbers: 09315BH, 08007EJ) and 1-methyl-L-tryptophan (1-L-MT, lot numbers: 08023HE, 15399MJ) (Sigma-Aldrich) were prepared by dissolving the inhibitors in 0.1 N NaOH. The pH was adjusted to 7.5 using hydrochloric acid. To avoid contamination of the cell cultures, the stock solutions were filtered through 0.2 μm filters. Interferon-gamma (IFN-g) was purchased from Immunotools (Friesoythe, Germany).
as §1
The dry TMT® sixplex mixtures were reconstituted in 300 μL of water:acetonitrile 95:5 with 0.1% trifluoroacetic acid (buffer A). 150 μL were fractionated by reversed phase chromatography (Nucleosil 120-5 C18 column, 250 mm×4.6 mm, Macherey Nagel) using a Waters 2695 HPLC with UV detection at 214 nm. After loading, the sample was washed 4 min with buffer A. Then, the substances were eluted by increasing the acetonitrile content within 40 min to 55%. The flow rate was kept at 1.5 mL/min over the entire gradient. The fraction from 18-30 minutes was collected and dried.
as §2
The SIM m/z range was from 350-500 Th with a resolution of 60000 and an AGC setting of 5e4 with a maximum scan time of 500 ms. MS/MS was acquired as TOP10 in HCD mode with a resolution of 7500 and an AGC setting of 5e4 with a maximum scan time of 500 ms. Isolation width was 1.5 amu and normalized collision energy was 60. The default charge state of the precursor was set to z=1. All other charge states were rejected. Analytes of interest were acquired in MSMS mode using an inclusion list only mode (±50 ppm) and all other analytes not included in the list were discarded.

human dendritic cells = assay: 1-MT degradation in interferon-gamma stimulated human dendritic cells; assay type: in vitro ADME; conditions: IFN gamma, after 6 days of incubation
Protocol: as §3, §1, §2
Immune cells can also express tryptophan-degrading enzymes and tryptophan degradation is known to exert potent immunosuppressive effects (9). To assess whether also immune cells, such as dendritic cells, degrade 1-MT to methyl-kynurenine, three independent biological samples of supernatants of human dendritic cells from two different donors were analysed (only donor 1 shown). […]

[1] = molecular target: T2, aryl hydrocarbon receptor (Homo sapiens, UniProt P35869); assay: qRT-PCR of AHR target genes in SKOV-3 cells; assay type: cell-based
T2 construct: Treatment of SKOV-3 cells with 1-D/L-MT under tryptophan-free conditions induced the AHR target genes CYP1A1 and TIPARP; endogenous in cells; host or cells: SKOV-3 ovarian carcinoma cells
T2 sequence (P35869 11-848): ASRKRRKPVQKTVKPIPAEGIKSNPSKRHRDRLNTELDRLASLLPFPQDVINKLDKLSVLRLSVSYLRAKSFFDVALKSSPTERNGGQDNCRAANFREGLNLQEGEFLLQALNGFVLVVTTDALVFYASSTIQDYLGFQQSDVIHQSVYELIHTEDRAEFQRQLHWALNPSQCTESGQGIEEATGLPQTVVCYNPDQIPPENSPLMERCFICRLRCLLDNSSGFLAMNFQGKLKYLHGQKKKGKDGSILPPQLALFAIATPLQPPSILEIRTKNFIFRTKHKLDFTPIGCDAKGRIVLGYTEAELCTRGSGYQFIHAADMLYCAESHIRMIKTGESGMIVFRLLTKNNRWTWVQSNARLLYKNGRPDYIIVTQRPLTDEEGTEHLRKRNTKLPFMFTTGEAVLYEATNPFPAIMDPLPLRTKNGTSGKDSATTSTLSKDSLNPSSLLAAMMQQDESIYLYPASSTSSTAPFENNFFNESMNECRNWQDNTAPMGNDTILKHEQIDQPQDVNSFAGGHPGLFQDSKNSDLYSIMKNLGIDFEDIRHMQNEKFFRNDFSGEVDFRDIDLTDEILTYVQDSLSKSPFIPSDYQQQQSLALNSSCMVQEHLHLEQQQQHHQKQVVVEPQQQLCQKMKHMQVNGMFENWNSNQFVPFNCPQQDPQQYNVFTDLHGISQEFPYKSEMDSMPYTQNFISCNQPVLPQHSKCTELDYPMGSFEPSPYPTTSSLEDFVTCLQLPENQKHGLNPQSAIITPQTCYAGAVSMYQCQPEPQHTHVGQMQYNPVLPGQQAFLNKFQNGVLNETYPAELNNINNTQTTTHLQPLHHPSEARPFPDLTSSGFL
Protocol: as §3, with “20 mM stock solutions (of 1-methyl-D-tryptophan (1-D-MT, lot numbers: 09315BH, 08007EJ) and 1-methyl-L-tryptophan (1-L-MT, lot numbers: 08023HE, 15399MJ) (Sigma-Aldrich) were prepared by dissolving the inhibitors in 0.1 N NaOH. The pH was adjusted to 7.5 using hydrochloric acid. To avoid contamination of the cell cultures, the stock solutions were filtered through 0.2 μm filters. Interferon-gamma (IFN-g) was purchased from Immunotools (Friesoythe, Germany).” left out
Total RNA was isolated with the Qiagen RNAeasy RNA isolation kit (Hilden, Germany) and cDNA was synthesized with the Applied Biosystems reverse-transcription-Kit (Foster City, USA) according to manufacturer's instructions. […] The size of the amplicons was analyzed by loading the samples and a 100 bp ladder (Invitrogen, Leek, Netherlands) on a 2% agarose gel, which was then stained with ethidium bromide and analyzed under UV light. […] Relative quantification of gene expression was determined by comparison of threshold values. […]

[2] = Serum analysis of LPS-stimulated mice injected with 1-L-MT; conditions: 1 mg/mouse 1-L-MT i.p.
Protocol: Animal work was supervised by institutional animal protection officials in accordance with the National Institute of Health guidelines Guide for the Care and Use of Laboratory Animals. C57BL/6N mice were purchased from Charles River (Sulzfeld, Germany). […] The blood was centrifuged to obtain serum, which was finally prepared for LC-MS/MS measurements.
50 μL of serum sample was precipitated with 50 μL TCA-solution (60 g/l) at 4° C. overnight. The suspension was centrifuged for 15 minutes at 4° C. at 6000 g. The pellet was discarded and the supernatant used for further experiments after neutralization with 1 M NaOH to pH 7-8.
66 μL of each precipitated and neutralized mouse serum sample were diluted with 6 μL of 1M triethylammonium bicarbonate (TEAB, Sigma-Aldrich) and then 24 μL of a 60 mM TMT reagent stock solution in ACN (LichroSolv, VWR) were added. The reaction was incubated for 1 hour at room temperature and finally quenched by adding 12 μL of 2.5% aqueous hydroxylamine solution (Sigma-Aldrich). The respective six labelled serum samples to be compared were mixed and dried.
For the Orbitrap MS runs the mixed mouse serum sample was dissolved in 2% ACN, 0.1% formic acid and ˜0.88 μL of mixed serum equivalent was loaded on column.

HEK control cells (WT) = assay: Degradation in supernatants of HEK control cells (WT); assay type: in vitro ADME, human; conditions: data not shown
Protocol: SKOV-3 ovarian carcinoma cells were cultured in McCoy's 5A Medium (BioConcept, Allschwil, Switzerland) supplemented with L-Tryptophan as indicated (Sigma-Aldrich, Taufkirchen, Germany), 300 mg/l Glutamine (Carl Roth, Karlsruhe, Germany), 10% FBS (Thermo Fisher Scientific Inc., Waltham, Mass., USA) and 100 U/mL penicillin and 100 μg/mL streptomycin (PAA Laboratories, Pasching, Austria). Human embryonic kidney (HEK) cells were cultured in DMEM (PAA Laboratories), 10% FBS (Thermo Scientific) and 100 U/mL penicillin and 100 μg/mL streptomycin (PAA Laboratories). Peripheral blood mononuclear cells (PBMC) were isolated from healthy, non-related blood-donors by density-gradient centrifugation using lymphocyte separation medium LSA 1077 (PAA Laboratories) and cultured in RPMI 1640 (PAA Laboratories) containing 10% FBS (Thermo Fisher Scientific Inc) and 100 U/mL penicillin and 100 μg/mL streptomycin (PAA Laboratories). […]
Samples were either measured on a QTof II (Waters) mass spectrometer coupled to an UPLC nanoLC (Waters) on an LTQ Orbitrap Velos Pro (Thermo Scientific) coupled to a Proxeon nanoLC-II (Thermo Scientific) or a triple quadrupole system coupled to nanoLC-II (EASY-nLC II TSQ Vantage system). […]

[3] = SKOV-3 cells, tryptophan-free conditions, qRT-PCR

T1 sequence (P48775 whole entry): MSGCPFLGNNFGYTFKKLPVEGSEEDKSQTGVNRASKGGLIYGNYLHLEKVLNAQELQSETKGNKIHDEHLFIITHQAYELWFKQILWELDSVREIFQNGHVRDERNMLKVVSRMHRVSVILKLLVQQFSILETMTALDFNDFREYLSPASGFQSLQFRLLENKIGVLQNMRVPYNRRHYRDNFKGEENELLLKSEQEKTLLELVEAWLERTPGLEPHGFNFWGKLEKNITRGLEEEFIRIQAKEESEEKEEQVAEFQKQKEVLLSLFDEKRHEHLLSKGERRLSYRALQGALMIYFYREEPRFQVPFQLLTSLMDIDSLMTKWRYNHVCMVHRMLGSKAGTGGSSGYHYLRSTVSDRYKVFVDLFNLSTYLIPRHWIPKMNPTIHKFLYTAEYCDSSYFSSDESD

Cn1cc(C[C@@H](N)C(=O)O)c2ccccc21 [1-D-MT, 1-methyl-D-tryptophan]
increase in methyl-kynurenine after treatment (TDO): not
metabolism of tryptophan to kynurenine in treated samples (SKOV-3 cells; D-MT compared with L-MT samples): more quickly and higher kynurenine levels were reached
degradation to methyl-kynurenine (SKOV-3 cells): degraded to methyl-kynurenine
methyl-kynurenine in the media (human dendritic cells): increase in methyl-kynurenine
reduction of substrate in the media (human dendritic cells): no clear reduction

Cn1cc(CC(N)C(=O)O)c2ccccc21 [1-D/L-MT]
induction of AHR target gene CYP1A1 [1, 3]: induced
induction of AHR target gene TIPARP [1, 3]: induced

Cn1cc(C[C@H](N)C(=O)O)c2ccccc21 [1-L-MT, 1-methyl-L-tryptophan]
increase in methyl-kynurenine after treatment (TDO): very slight increase
serum methyl-kynurenine versus mice treated with LPS alone [2]: significantly higher concentrations of methyl-kynurenine
depletion of the substance from the media (SKOV-3 cells): completely depleted
degradation to methyl-kynurenine (SKOV-3 cells): degraded more quickly than 1-D-MT
methyl-kynurenine in the media (human dendritic cells): increase in methyl-kynurenine
reduction of substrate in the media (human dendritic cells): reduction

Cn1cc(C[C@H](N)C(=O)O)c2ccccc21 [1-MT, 1-methyl-tryptophan]
degradation by HEK control cells (HEK control cells (WT)): degraded neither
degradation / decrease of substrate in cell supernatants (TDO): no decrease

N[C@H](Cc1c[nH]c2ccccc12)C(=O)O [D-tryptophan]
depletion of the substance from the media (SKOV-3 cells): not entirely depleted

N[C@@H](Cc1c[nH]c2ccccc12)C(=O)O [L-tryptophan]
depletion of the substance from the media (SKOV-3 cells): completely depleted

CNc1ccccc1C(=O)C[C@H](N)C(=O)O [methyl-kynurenine, (S)—N-methyl kynurenine]
activation of the AHR ([1]; inferred from treatment of SKOV-3 cells with 1-D/L-MT): capable of activating the AHR

N[C@@H](Cc1c[nH]c2ccccc12)C(=O)O [tryptophan]
degradation by HEK control cells (HEK control cells (WT)): degraded neither
degradation / decrease of substrate in cell supernatants (TDO): degraded tryptophan to kynurenine
